Measurements taken from BindingDB's records for doi:10.1016/j.bmc.2017.07.045 (Punjabi University, 2017).

Experiment: Inhibition of P2Y12 in human platelet rich plasma assessed as reduction in ADP-induced platelet aggregation pre-incubated before ADP addition and measured after 10 mins by Bruker spectrophotometry

SMILES | IC50 [mM]
CCCCCCn1nnc2c([N+](=O)[O-])cccc21 | 1.04
O=[N+]([O-])c1cccc2c1nnn2CCCCl | 0.91
CCn1nc2cccc([N+](=O)[O-])c2n1 | 1.62
O=[N+]([O-])c1cccc2nn(CCCCl)nc12 | 1.26
O=[N+]([O-])c1cccc2nn(Cc3ccccc3)nc12 | 0.82
CCCCCCCCn1nnc2c([N+](=O)[O-])cccc21 | 0.94
CCCSc1nc(N[C@@H]2C[C@H]2c2ccc(F)c(F)c2)c2nnn([C@@H]3C[C@H](OCCO)[C@@H](O)[C@H]3O)c2n1 [AR-C126532XX] | 0.00032
c1ccc2[nH]nnc2c1 [CHEBI:75331] | 7.43
O=C(c1ccccc1)n1nnc2c([N+](=O)[O-])cccc21 | 0.65
CCCCCCCn1nc2cccc([N+](=O)[O-])c2n1 | 0.93
CCn1nnc2c([N+](=O)[O-])cccc21 | 1.5
Cn1nc2cccc([N+](=O)[O-])c2n1 | 1.96
CCCCCCCn1nnc2c([N+](=O)[O-])cccc21 | 0.95
CCCCn1nc2cccc([N+](=O)[O-])c2n1 | 1.07
CCCn1nc2cccc([N+](=O)[O-])c2n1 | 1.32
Cc1ccc(S(=O)(=O)n2nnc3c([N+](=O)[O-])cccc32)cc1 | 0.86
CCCn1nnc2c([N+](=O)[O-])cccc21 | 1.3
CCCCCn1nnc2c([N+](=O)[O-])cccc21 | 1.07
CCCCCCn1nc2cccc([N+](=O)[O-])c2n1 | 0.94
Cn1nnc2c([N+](=O)[O-])cccc21 | 1.84
CCCCCn1nc2cccc([N+](=O)[O-])c2n1 | 1.02
Cn1nnc2cccc([N+](=O)[O-])c21 | 1.8
CCCCCCCCn1nc2cccc([N+](=O)[O-])c2n1 | 0.92
O=[N+]([O-])c1cccc2c1nnn2Cc1ccccc1 | 0.81
CCCCn1nnc2c([N+](=O)[O-])cccc21 | 1.05
